# Reference: paper PMC5444710, “Enhancement of radiosensitivity by the novel anticancer quinolone derivative vosaroxin in preclinical glioblastoma models” (Oncotarget, 2017)
# Key:
# U251 xenografts = assay: Cytokine expression in xenograft tissue extracts (ELISA); assay type: in vivo, female CD1-nu/nu mice; settings: U251 xenograft tissue extract
# Method: (§1) After appropriate treatments, tumor cell cultures and tissues were harvested for analysis of cytokine expression. Cell pellets were washed with PBS and lysed with RIPA buffer. Cell lysates and conditioned media were assayed by ELISA to measure (i) active human caspase-3 (CBA045, Merck Chemicals Ltd., Nottingham, UK), (ii) beclin-1 (E98557Hu, USCN Life Sciences, Houston, TX, USA), and (iii) DNA damage (EpiQuik in situ DNA Damage Assay Kit, Epigentek, Farmingdale, NY, USA). Tumor extracts were analyzed for the presence of:
# (§2) • MMP-2 (KHC3081) • TNF-α (KHC3011, Life Technologies Italia, Monza, Italy) • CXCR4 (Cyto Glow CXCR4 [pSer339], cell-based ELISA, Assay Biotech, Sunnyvale, CA, USA) • Human Fas ligand (ELH-FASL, RayBiotech, Norcross, GA, USA) • IL-6 (orb50052) and survivin (orb50135) (Biorbyt) • TGF-β1 (Quantikine ELISA Kit, DB100B, R&D Systems, Minneapolis, MN, USA) • SDF-1α (Human CXCL12/SDF-1α Quantikine ELISA Kit, DSA00, R&D Systems) • Mouse IL-10 DuoSet ELISA DY417 (R&D Systems Minneapolis, MN, USA) • Mouse NOS2 / iNOS ELISA Kit (Sandwich ELISA) - LS-F12166 (LifeSpan Biosciences, Inc, Seattle, WA, USA) • Mouse ARG1 / Arginase-1 ELISA Kit (Sandwich ELISA) - LS-F10883 (LifeSpan Biosciences, Inc, Seattle, WA, USA)
# (§3) All determinations were performed in triplicate, according to manufacturers’ instructions. Data are presented as mean ± SE. Cytokine secretion determined by ELISA was normalized to total protein concentration in tissue lysates.
# T98G xenografts = assay: as above; assay type: in vivo, female CD1-nu/nu mice; settings: T98G xenograft tissue extract
# Method: as §1, §2, §3
# U87MG xenografts = assay: as above; assay type: in vivo, female CD1-nu/nu mice; settings: U87MG xenograft tissue extract
# Method: as §1, §2, §3
# [1] = test system: luciferase-transfected U251 cells; assay: Orthotopic intra-brain model (DFS, OS)
# [2] = test system: U87MG, U251, and T98G cells; assay: Autophagy: acidic vesicular organelle (AVO) staining; assay type: cell-based, human; settings: vosaroxin at IC20 for each cell line added to RT 4 Gy; 24 hours
# From the text: As a marker of autophagy we evaluated the presence of AVOs after staining of cell cultures with LysoTracker® Red DND-99 kit (Life Technologies Italia, Monza, Italy) according to the manufacturer’s instructions. The intensity of the red fluorescence is proportional to the degree of acidity. The percentage of autophagic cells was quantified with the Tali® Image-Based Cytometer (Life Technologies) measuring fluorescence emission at 590 nm with fluorescence excitation at 577 nm. The results were expressed as the percentage of cell AVOs stained in controls and in treated cultures.
# [3] = test system: U87MG, U251, and T98G xenografts; assay: iNOS and arginase-1 expression in xenograft tissue extracts; assay type: in vivo, female CD1-nu/nu mice; settings: tissue extracts from U87MG
# Method: as §1, §2
# GBM cell lines = assay: Clonogenic survival assays (abstract statement); assay type: cell-based; settings: Homo sapiens
# Method: For clonogenic survival assays, exponentially growing cells (70% confluence) were cultured in regular media and treated with vosaroxin, at the appropriate concentrations, or vehicle (final dimethyl sulfoxide concentration of 0.1%) for 48 hours. Tumor cells were then irradiated at room temperature with increasing doses of radiation (0–6 Gy) using an x-ray linear accelerator (dose rate of 200 cGy/min). Nonirradiated controls were handled identically to the irradiated cells with the exception of the radiation exposure. […] Colonies containing more than 50 cells were counted. The plating efficiency was calculated as the number of colonies observed divided by the number of cells plated. The surviving fraction was calculated as the number of colonies formed in the treated dishes compared with the number formed in the control. The survival curves were analyzed using SPSS statistical software (Chicago, IL, USA) by means of a fit of the data by a weighted, stratified, linear regression, according to the linear-quadratic formula: S(D)/S(O) = exp-(αD + βD2). The cell survival enhancement ratio was calculated as the ratio of the mean inactivation dose under control conditions divided by the mean inactivation dose after treatment as previously described.
# beclin-1 = assay: Beclin-1 expression (Western blot and ELISA); assay type: cell-based, human; settings: after vosaroxin treatment at IC20; U87MG, U251, T98G
# Method: Cells grown in 90 mm diameter Petri dishes were treated and at various timepoints were washed with cold phosphate-buffered saline (PBS) and immediately lysed with 1 mL radioimmunoprecipitation assay (RIPA) buffer containing protease and phosphatase inhibitor cocktail. Total lysates were electrophoresed in SDS-PAGE (7%), and separated proteins transferred to nitrocellulose and probed with the appropriate antibodies using the conditions recommended by the suppliers. Protein levels in total extracts were normalized to actin. After appropriate treatments, tumor cell cultures and tissues were harvested for analysis of cytokine expression. Cell pellets were washed with PBS and lysed with RIPA buffer. Cell lysates and conditioned media were assayed by ELISA to measure (i) active human caspase-3 (CBA045, Merck Chemicals Ltd., Nottingham, UK), (ii) beclin-1 (E98557Hu, USCN Life Sciences, Houston, TX, USA), and (iii) DNA damage (EpiQuik in situ DNA Damage Assay Kit, Epigentek, Farmingdale, NY, USA).
# [4] = test system: P-glycoprotein drug pumps; parameters: method as in PMID 23688047; settings: cited from earlier work
structure (smiles),measurement,setting,value
CN[C@H]1CN(c2ccc3c(=O)c(C(=O)O)cn(-c4nccs4)c3n2)C[C@@H]1OC [vosaroxin],Human IL-6,U251 xenografts,33 ± 8 pg/mg tissue
same,Human TGF-β1,U251 xenografts,35 ± 6
same,Human TNF-α,U251 xenografts,7 ± 1 pg/mg tissue
same,Human and mouse IL-8,U251 xenografts,275 ± 35 pg/mg tissue
same,Mouse IL-1β,U251 xenografts,44 ± 5 pg/mg tissue
same,Mouse IL-10,U251 xenografts,5.2 ± 0.6
same,Mouse SDF-1α,U251 xenografts,32 ± 3
same,Human IL-6,T98G xenografts,30 ± 3 pg/mg tissue
same,Human TGF-β1,T98G xenografts,27 ± 3
same,Human TNF-α,T98G xenografts,3 ± 1 pg/mg tissue
same,Human and mouse IL-8,T98G xenografts,440 ± 30 pg/mg tissue
same,Mouse IL-1β,T98G xenografts,27 ± 4 pg/mg tissue
same,Mouse IL-10,T98G xenografts,< 1.0
same,Mouse SDF-1α,T98G xenografts,12 ± 4
same,Human IL-6,U87MG xenografts,78 ± 13 pg/mg tissue
same,Human TGF-β1,U87MG xenografts,47 ± 8
same,Human TNF-α,U87MG xenografts,17 ± 3 pg/mg tissue
same,Human and mouse IL-8,U87MG xenografts,715 ± 37 pg/mg tissue
same,Mouse IL-1β,U87MG xenografts,85 ± 10 pg/mg tissue
same,Mouse IL-10,U87MG xenografts,6.2 ± 0.5
same,Mouse SDF-1α,U87MG xenografts,18 ± 3
same,Disease-free Survival HR (95% CI),[1]; VSR vs TMZ + RT,1.2 (0.4–3.2)
same,Overall Survival HR (95% CI),[1]; VSR vs TMZ + RT,1.5 (0.5–3.0)
same,Disease-free Survival HR (95% CI),[1]; VSR vs VSR + RT,2.4 (1.1–8.8)
same,Overall Survival HR (95% CI),[1]; VSR vs VSR + RT,4.5 (2.2–22.5)
same,mean time of recurrence (DFS) ± SE,"[1]; orthotopic U251-luciferase, treated for 35 days starting 5 days after cell injection",70.5 ± 7.3 days
same,RT-induced AVO staining,[2],reduced
same,arginase-1 expression (M2 marker),[3],low expression
same,iNOS expression (M1 marker),[3],high expression
same,IC50,GBM cell lines,10 to 100 nM
same,RT-induced levels of beclin-1,beclin-1,significantly reduced
same,substrate for P-glycoprotein drug pumps,[4],not a substrate
